The values below come from patent US20240252560A1, “LACTOBACILLUS RHAMNOSUS-DERIVED VESICLE AND USES THEREOF” (MD HEALTHCARE INC., priority 2021, published 2024).

In this experiment the test system is AMPK. Nature of the experiment: AMPK activation (pAMPK Western blotting) in muscle cells. The conditions noted are these: 1 hour, vesicles 0, 0.1, 1, 10 μg/ml, metformin 10 μg/ml. It counts as cell-based. As to the method: Therefore, an experiment was performed in the following manner to evaluate the effect of Lactobacillus rhamnosus-derived vesicles (MDH-003) on cellular aging through AMPK activation within cells. That is, to evaluate AMPK activity according to the concentration of Lactobacillus rhamnosus-derived vesicles in muscle cells, cells were treated with Lactobacillus rhamnosus-derived vesicles at concentrations of 0, 0.1, 1, and 10 μg/ml for 1 hour. As a control group, metformin, which suppresses aging, was used at a concentration of 10 μg/ml. After treating the cells with the drug, the difference in the amount of pAMPK, which is an important indicator in AMPK signaling, was measured by Western blotting.

With `CN(C)C(=N)N=C(N)N` [metformin], the “phosphorylation of AMPK (pAMPK)” value was “enhanced”.
